Measured values taken from US11827639B2, “TDO2 and IDO1 inhibitors” (Genentech, Inc., priority 2017, dated 2023).
Where two headings read alike, the source gives them in different places.

Legend:
IDO1 [1] = target: T1, IDO1 (Homo sapiens, UniProt P14902)
TDO2 [2] = target: T2, TDO2 (Homo sapiens, UniProt P48775); assay: TDO2 cell assay (NFK GreenScreen) in SW48 cells; settings: read-out: TDO2 cell Fluor EC50, NFK GreenScreen fluorescence
TDO2 [3] = target: T2, TDO2; assay: cell-based
IDO1 [4] = target: T1, IDO1; assay: cell-based

T2 sequence (P48775 whole entry): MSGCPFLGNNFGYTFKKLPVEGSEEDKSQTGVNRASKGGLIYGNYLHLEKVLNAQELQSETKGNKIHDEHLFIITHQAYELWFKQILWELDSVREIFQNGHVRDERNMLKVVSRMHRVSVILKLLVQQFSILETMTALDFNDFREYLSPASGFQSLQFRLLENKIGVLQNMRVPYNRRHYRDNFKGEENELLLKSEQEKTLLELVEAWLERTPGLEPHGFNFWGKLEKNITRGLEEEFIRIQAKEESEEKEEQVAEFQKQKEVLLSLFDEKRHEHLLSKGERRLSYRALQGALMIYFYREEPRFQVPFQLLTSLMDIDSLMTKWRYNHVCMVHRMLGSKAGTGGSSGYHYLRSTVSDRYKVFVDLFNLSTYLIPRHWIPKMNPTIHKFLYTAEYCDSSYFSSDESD
T1 sequence (P14902 whole entry): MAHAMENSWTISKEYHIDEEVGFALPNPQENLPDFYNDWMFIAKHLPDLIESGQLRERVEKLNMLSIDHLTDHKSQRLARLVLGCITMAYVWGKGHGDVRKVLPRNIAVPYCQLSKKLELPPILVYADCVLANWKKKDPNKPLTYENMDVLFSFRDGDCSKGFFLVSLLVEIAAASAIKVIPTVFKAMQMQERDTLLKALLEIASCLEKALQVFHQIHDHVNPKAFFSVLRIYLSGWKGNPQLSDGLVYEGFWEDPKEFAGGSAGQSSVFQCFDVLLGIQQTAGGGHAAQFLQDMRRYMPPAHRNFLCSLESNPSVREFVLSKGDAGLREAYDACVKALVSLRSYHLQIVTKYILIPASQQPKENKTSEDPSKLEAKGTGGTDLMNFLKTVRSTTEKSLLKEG

Compound | EC50 (IDO1 [1]) | EC50 (TDO2 [2]) | EC50 (TDO2 [3]) | EC50 (IDO1 [4])
c1ccc2c(c1)-c1cncn1[C@H]2C1CCCCC1 [Example 19b] | 416 nM | 33 nM |  | 
c1ccc2c(c1)-c1cncn1C2C1CCC2(CC1)OCCO2 (stereo not drawn) [Example 26, 5-(1,4-dioxaspiro[4.5]decan-8-yl)-5H-imidazo[5,1-a]isoindole] |  |  | 3200 nM | 9700 nM
OCc1cc(F)cc(C2c3ccccc3-c3cncn32)c1 (single isomer, unassigned) [Example 09b] |  |  | 96 nM | 3300 nM
c1ccc2c(c1)-c1cncn1C2C1CCOCC1 (stereo not drawn) [Example 14, 5-(tetrahydro-2H-pyran-4-yl)-5H-imidazo[5,1-a]isoindole] |  |  | 810 nM | 15000 nM
O=C(C1CC1)N1CCC(C2c3ccccc3-c3cncn32)CC1 (stereo not drawn) [Example 18, (4-(5H-imidazo[5,1-a]isoindol-5-yl)piperidin-1-yl)(cyclopropyl)methanone] |  |  | 9600 nM | 19000 nM
CS(=O)(=O)c1ccc(C2c3ccccc3-c3cncn32)cc1 (stereo not drawn) [Example 56, 5-(4-(methylsulfonyl)phenyl)-5H-imidazo[5,1-a]isoindole] |  |  | 640 nM | 4600 nM
NS(=O)(=O)c1cccc(C2c3ccccc3-c3cncn32)c1 (single isomer, unassigned) [Example 07b] |  |  | 790 nM | 6500 nM
NS(=O)(=O)N1CC2(CC(C3c4ccccc4-c4cncn43)C2)C1 (stereo not drawn) [Example 66, 6-(5H-imidazo[5,1-a]isoindol-5-yl)-2-azaspiro[3.3]heptane-2-sulfonamide] |  |  | 1100 nM | 20000 nM
CS(=O)(=O)N1CCC(C2c3ccccc3-c3cncn32)CC1 (stereo not drawn) [Example 16, 5-(1-(methylsulfonyl)piperidin-4-yl)-5H-imidazo[5,1-a]isoindole] |  |  | 150 nM | 930 nM
CC1(C)CC(C2c3ccccc3-c3cncn32)C1 (stereo not drawn) [Example 67, 5-(3,3-dimethylcyclobutyl)-5H-imidazo[5,1-a]isoindole] |  |  | 210 nM | 900 nM
Fc1cc(F)cc(C2c3ccccc3-c3cncn32)c1 (stereo not drawn) [Example 45, 5-(3,5-difluorophenyl)-5H-imidazo[5,1-a]isoindole] |  |  | 140 nM | 1900 nM
C[C@H](O)c1cccc([C@H]2c3ccccc3-c3cncn32)c1 [Example 10a, (S)-1-(3-((S)-5H-imidazo[5,1-a]isoindol-5-yl)phenyl)ethan-1-ol] |  |  | 320 nM | 5000 nM
Fc1cccc(C2c3ccccc3-c3cncn32)c1 (stereo not drawn) [Example 30, 5-(3-fluorophenyl)-5H-imidazo[5,1-a]isoindole] |  |  | 340 nM | 5000 nM

Further lines, results first:

EC50 (IDO1 [1]) | EC50 (TDO2 [2]) | EC50 (TDO2 [3]) | EC50 (IDO1 [4]) | Compound
 |  | 420 nM | 7100 nM | O=S1(=O)NCC2CC(C3c4ccccc4-c4cncn43)CCN21 (stereo not drawn) [Example 94, 5-(5H-imidazo[5,1-a]isoindol-5-yl)hexahydro-2H-[1,2,5]thiadiazolo[2,3-a]pyridine 1,1-dioxide]
 |  | 220 nM | 5900 nM | O=S(=O)(NC1CC1)N1CCC(C2c3ccc(F)cc3-c3cncn32)CC1 (stereo not drawn) [Example 89, N-cyclopropyl-4-(8-fluoro-5H-imidazo[5,1-a]isoindol-5-yl)piperidine-1-sulfonamide]
 |  | 530 nM | 8500 nM | Cn1cc(C2c3ccccc3-c3cncn32)cn1 (single isomer, unassigned) [Example 79b]
 |  | 1800 nM | 140 nM | CC(C)(C)OC(=O)N1CC2(CCC(C3c4ccccc4-c4cncn43)CC2)C1 (stereo not drawn) [Example 76, tert-butyl 7-(5H-imidazo[5,1-a]isoindol-5-yl)-2-azaspiro[3.5]nonane-2-carboxylate]
 |  | 180 nM | 860 nM | CC1(O)CCC(C2c3ccccc3-c3cncn32)CC1 (stereo not drawn) [Example 70, 4-(5H-imidazo[5,1-a]isoindol-5-yl)-1-methylcyclohexan-1-ol]
